Here are results for four molecules from patent US6159700A, “Method of finding agonist and antagonist to human and rat GPR14” (SmithKline Beecham Corporation, priority 1999, dated 2000).

The target in data set [1] is T1, rat GPR14 receptor (Rattus norvegicus, UniProt P49684).
T1 sequence (P49684 1-386): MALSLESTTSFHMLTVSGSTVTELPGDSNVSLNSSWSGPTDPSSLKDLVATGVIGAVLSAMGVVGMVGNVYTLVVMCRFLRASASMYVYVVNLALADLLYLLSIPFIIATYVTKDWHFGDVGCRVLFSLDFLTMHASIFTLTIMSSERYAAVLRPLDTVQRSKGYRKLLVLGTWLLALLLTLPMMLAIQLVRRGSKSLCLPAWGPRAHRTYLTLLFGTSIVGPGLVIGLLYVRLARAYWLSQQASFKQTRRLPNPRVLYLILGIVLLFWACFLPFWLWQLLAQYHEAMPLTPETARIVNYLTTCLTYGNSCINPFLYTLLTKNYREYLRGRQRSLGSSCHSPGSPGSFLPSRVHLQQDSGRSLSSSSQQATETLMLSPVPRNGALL
The experiment in a line: Binding to rat GPR14 receptor. The note with it: compared with Human GPR14. The text has this:
Ligand binding assays provide a direct method for ascertaining receptor pharmacology and are adaptable to a high throughput format. The purified ligand for a receptor is radiolabeled to high specific activity (50-2000 Ci/mmol) for binding studies. […] Assay conditions for buffers, ions, pH and other modulators such as nucleotides are optimized to establish a workable signal to noise ratio for both membrane and whole cell receptor sources. For these assays, specific receptor binding is defined as total associated radioactivity minus the radioactivity measured in the presence of an excess of unlabeled competing ligand. Where possible, more than one competing ligand is used to define residual nonspecific binding.

A short description of the next data set: Vasoconstrictor potency. To be noted: mammalian.
A further data set deals with intact primate. Briefly: Effects in the intact primate. Format: in vivo.
A further data set deals with T2, Human GPR14 (human).
T2 chain: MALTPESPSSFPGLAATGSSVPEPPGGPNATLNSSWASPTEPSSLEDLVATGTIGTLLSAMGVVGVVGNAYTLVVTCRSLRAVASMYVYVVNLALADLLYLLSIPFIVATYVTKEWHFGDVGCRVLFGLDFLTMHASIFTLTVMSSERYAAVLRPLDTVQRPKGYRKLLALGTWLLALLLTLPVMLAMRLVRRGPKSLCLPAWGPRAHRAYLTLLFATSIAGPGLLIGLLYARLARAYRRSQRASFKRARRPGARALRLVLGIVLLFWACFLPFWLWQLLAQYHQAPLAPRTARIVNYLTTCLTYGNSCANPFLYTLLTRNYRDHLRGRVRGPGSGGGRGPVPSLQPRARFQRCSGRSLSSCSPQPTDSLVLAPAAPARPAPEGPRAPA
Briefly: cell-based or functional assay.

Data set [2] deals with T3, Rat GPR14 receptor (rat).
T3 chain: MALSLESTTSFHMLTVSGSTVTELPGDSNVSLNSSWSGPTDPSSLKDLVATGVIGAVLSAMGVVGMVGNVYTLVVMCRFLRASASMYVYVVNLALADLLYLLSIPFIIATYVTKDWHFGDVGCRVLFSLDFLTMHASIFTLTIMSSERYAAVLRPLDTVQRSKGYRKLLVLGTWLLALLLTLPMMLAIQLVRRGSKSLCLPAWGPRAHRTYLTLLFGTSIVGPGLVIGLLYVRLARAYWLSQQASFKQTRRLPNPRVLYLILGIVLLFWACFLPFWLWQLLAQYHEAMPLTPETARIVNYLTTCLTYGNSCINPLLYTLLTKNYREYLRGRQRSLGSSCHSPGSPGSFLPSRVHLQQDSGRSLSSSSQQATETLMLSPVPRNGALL
The experiment in a line: cell-based or functional assay.

Bridge positions count the residues as written; N and C are the ends. Peptide text beside a SMILES is read from it.

With `CC(C)[C@H](NC(=O)[C@@H]1CSSC[C@H](NC(=O)[C@H](CC(=O)O)NC(=O)[C@H](C)NC(=O)[C@@H](NC(=O)CNC(=O)[C@H](C)N)[C@@H](C)O)C(=O)N[C@@H](Cc2ccccc2)C(=O)N[C@@H](Cc2c[nH]c3ccccc23)C(=O)N[C@@H](CCCCN)C(=O)N[C@@H](Cc2ccc(O)cc2)C(=O)N1)C(=O)O` [fish urotensin II] (H-AGTADCFWKYCV-OH; disulfide 6-11 (inferred); N-terminus and C-terminus assumed), the “binding to rat GPR14 receptor” value on rat GPR14 receptor [1] is listed as “binds equally well to rat GPR14 receptor”.
On to `CC(C)[C@H](NC(=O)[C@@H]1CSSC[C@H](NC(=O)[C@H](CC(=O)O)NC(=O)[C@@H]2CCCN2C(=O)[C@@H](NC(=O)[C@@H](N)CCC(=O)O)[C@@H](C)O)C(=O)N[C@@H](Cc2ccccc2)C(=O)N[C@@H](Cc2c[nH]c3ccccc23)C(=O)N[C@@H](CCCCN)C(=O)N[C@@H](Cc2ccc(O)cc2)C(=O)N1)C(=O)O` [human urotensin II], for which, in “Vasoconstrictor potency”, the vasoconstrictor potency result is “most potent mammalian vasoconstrictor identified to date”. Further, the “cardiovascular effects in vivo” value with intact primate was “induces systemic vasoconstriction, myocardial contractile dysfunction and, ultimately, lethal arrhythmias”. For the same molecule, the “binding to rat GPR14 receptor” value on rat GPR14 receptor [1] is reported as “binds equally well to rat GPR14 receptor”.
For ETPDCFWKYCV [Human urotensin II], the “EC50 of calcium mobilization” value with Human GPR14 was in the range of 0.1 to 0.2 nM.
In the case of AGTADCFWKYCV [Fish urotensin II], the “EC50 of calcium mobilization (FLIPR)” value in the data set with Rat GPR14 receptor [2] was 0.8 nM; with Human GPR14, 0.5 nM.
